Test results from US5338869A, “Hydroxyphenylpropionic ester having novel crystal structure” (Sumitomo Chemical Company, Limited, priority 1992, dated 1994).

Tests used:
Assay type in all cases: physicochemical
[1] = Bulk specific gravity (packed state)
[2] = Angle of repose of crystals
[3] = Angle of spatula of crystals
[4] = Solubility in organic solvents at 20° C.
[5] = Hygroscopicity: moisture content after exposure to 100% relative humidity (Karl Fischer method); conditions: for Hygroscopicity (Water content in % by weight): room temperature, relative humidity 100%
Source text: Consequently, the crystals can be used conveniently and advantageously with no additional treatment, such as re-drying and moisture-proof packing, even in such uses as the production of polyurethane, which is susceptible to the influence of moisture.

SMILES	Bulk Specific Gravity [1]	Angle of Repose [2]	Angle of Spatula [3]	Solubility at 20° C. ([4]; Cyclohexane)	Solubility at 20° C. ([4]; Methanol)	Solubility at 20° C. ([4]; Toluene)	Hygroscopicity (Water content in % by weight) ([5]; exposure period 0 Days)	Hygroscopicity (Water content in % by weight) ([5]; exposure period 1 Day)	Hygroscopicity (Water content in % by weight) ([5]; exposure period 50 Days)	Hygroscopicity (Water content in % by weight) ([5]; exposure period 100 Days)	solubility in organic solvents (in words) ([4]; compared with the δ-crystals and the αβ-crystals)	hygroscopicity (in words) ([5]; compared with the prior αβ- and δ-crystals)
Cc1cc(CCC(=O)OCC(C)(C)C2OCC3(CO2)COC(C(C)(C)COC(=O)CCc2cc(C)c(O)c(C(C)(C)C)c2)OC3)cc(C(C)(C)C)c1O (stereo not shown) [Example 3, 3,9-bis[2-{3-(3-t-butyl-4-hydroxy-5-methylphenyl)propionyloxy}-1,1-dimethylethyl]-2,4,8,10-tetraoxaspiro[5.5]undecane]	0.66	47 °	58 °	–	–	–	–	–	–	–	–	–
Cc1cc(CCC(=O)OCC(C)(C)C2OCC3(CO2)COC(C(C)(C)COC(=O)CCc2cc(C)c(O)c(C(C)(C)C)c2)OC3)cc(C(C)(C)C)c1O (stereo not shown) [Comparative Example 2, 3,9-bis[2-{3-(3-t-butyl-4-hydroxy-5-methylphenyl)propionyloxy}-1,1-dimethylethyl]-2,4,8,10-tetraoxaspiro[5.5]undecane, reference compound]	0.40	53 °	74 °	–	–	–	–	–	–	–	–	–
Cc1cc(CCC(=O)OCC(C)(C)C2OCC3(CO2)COC(C(C)(C)COC(=O)CCc2cc(C)c(O)c(C(C)(C)C)c2)OC3)cc(C(C)(C)C)c1O (stereo not shown) [δ-Crystal, 3,9-bis[2-{3-(3-t-butyl-4-hydroxy-5-methylphenyl)propionyloxy}-1,1-dimethylethyl]-2,4,8,10-tetraoxaspiro[5.5]undecane, reference compound]	–	–	–	0.06 g/100 g solvent	9 g/100 g solvent	15 g/100 g solvent	0.10 % by weight	0.47 % by weight	0.50 % by weight	0.45 % by weight	–	–
Cc1cc(CCC(=O)OCC(C)(C)C2OCC3(CO2)COC(C(C)(C)COC(=O)CCc2cc(C)c(O)c(C(C)(C)C)c2)OC3)cc(C(C)(C)C)c1O (stereo not shown) [Example 1, 3,9-bis[2-{3-(3-t-butyl-4-hydroxy-5-methylphenyl)propionyloxy}-1,1-dimethylethyl]-2,4,8,10-tetraoxaspiro[5,5]undecane]	0.59	45 °	57 °	–	–	–	–	–	–	–	–	–
Cc1cc(CCC(=O)OCC(C)(C)C2OCC3(CO2)COC(C(C)(C)COC(=O)CCc2cc(C)c(O)c(C(C)(C)C)c2)OC3)cc(C(C)(C)C)c1O (stereo not shown) [Example 2, 3,9-bis[2-{3-(3-t-butyl-4-hydroxy-5-methylphenyl)propionyloxy}-1,1-dimethylethyl]-2,4,8,10-tetraoxaspiro[5.5]undecane]	0.60	45 °	58 °	–	–	–	–	–	–	–	–	–
Cc1cc(CCC(=O)OCC(C)(C)C2OCC3(CO2)COC(C(C)(C)COC(=O)CCc2cc(C)c(O)c(C(C)(C)C)c2)OC3)cc(C(C)(C)C)c1O (stereo not shown) [Comparative Example 1, 3,9-bis[2-{3-(3-t-butyl-4-hydroxy-5-methylphenyl)propionyloxy}-1,1-dimethylethyl]-2,4,8,10-tetraoxaspiro[5.5]undecane, reference compound]	0.43	50 °	65 °	–	–	–	–	–	–	–	–	–
Cc1cc(CCC(=O)OCC(C)(C)C2OCC3(CO2)COC(C(C)(C)COC(=O)CCc2cc(C)c(O)c(C(C)(C)C)c2)OC3)cc(C(C)(C)C)c1O (stereo not shown) [ε-Crystal, 3,9-bis[2-{3-(3-t-butyl-4-hydroxy-5-methylphenyl)propionyloxy}-1,1-dimethylethyl]-2,4,8,10-tetraoxaspiro[5.5]undecane]	–	–	–	0.02 g/100 g solvent	4 g/100 g solvent	9 g/100 g solvent	0.04 % by weight	0.06 % by weight	0.05 % by weight	0.05 % by weight	lower solubility in organic solvents than the δ-crystals and the αβ-crystals	smaller in hygroscopicity than the prior αβ- and δ-crystals
